Data on ten molecules can be found in patent publication US20100130738A1 (priority 2007, published 2010).

As a reminder, the melting point is the temperature, or range, at which the solid turns liquid.

Data set [1] addresses T1, PDE3A catalytic domain (PDE3Acat) (Homo sapiens, UniProt Q14432).
T1 construct: isolate the cDNA of a PDE3A catalytic domain; made in house; host or cells: Sf9 insect cells (baculovirus, Bac-to-Bac / Gateway)
As to the kind of experiment: Phosphodiesterase inhibitory activity, recombinant PDE3Acat, [3H]cAMP. It is filed as biochemical. The following applies: 30° C. 20 minutes, read-out: IC50 (μmol/L) PDE3.

The next data set concerns the target T2, PDE4Bcat (Homo sapiens, UniProt Q07343).
T2 construct: made in house; host or cells: Sf9 insect cells (baculovirus, Bac-to-Bac / Gateway)
Kind of data set: Phosphodiesterase inhibitory activity, recombinant PDE4Bcat, [3H]cAMP. The following applies: 30° C. 20 minutes, read-out: IC50 (μmol/L) PDE4. It is filed as biochemical.

The subject of data set [2] is LPS acute inflammation model in rats. As to the kind of experiment: LPS acute inflammation model in rats (total leukocytes in BALF). The following applies: 10 mg/kg orally one hour before LPS inhalation, BALF 3 hours after LPS inhalation. It is filed as in vivo, rat. On the procedure: 10 mg/kg of the compounds were orally administered to rats one hour before inhalation of a lipopolysaccharide from E. coli serotype 055:B5 (LPS), and the rats were made to inhale 50 ml of the LPS solution nebulized using a nebulizer for 30 minutes. Then, 3 hours after LPS inhalation, the rats were euthanized with 20% urethane (5 ml/rat, i.p.). 5 ml of physiological saline for bronchoalveolar lavage was injected into the bronchial tubes and alveoli through the airway, and the bronchial tubes and alveoli were washed three times using a 5 mL syringe. This operation was repeated twice, and the solution was collected as bronchoalveolar lavage fluid (BALF). The collected BALF was centrifuged at 1200 rpm and 4° C. for 10 minutes (Hirtachi; himac CR 5 DL). The pellet was re-suspended in 10 ml of a 0.1% bovine serum albumin-physiological saline, and an equivalent amount of Turk's solution was added thereto to stain leukocytes. The total number of leukocytes was counted under a microscope to calculate the inhibition rate. Further, the indications were as follows: inhibition rate≧80% (+++), 80%≧inhibition rate≧60% (++), and 60%>inhibition rate≧40% (+).

Data set [3] has as its system histamine-induced bronchoconstriction in guinea pigs. As to the kind of experiment: Histamine-induced bronchoconstriction reaction in guinea pigs. It is filed as in vivo, guinea pig. Conditions: Cavia porcellus, iv, 0.5 min, compound 0.3 mg/kg i.v., measured 30 seconds after administration, histamine 12.5 μg/kg i.v., read-out: Inhibition rate (histamine-induced bronchoconstriction). On the procedure: Guinea pigs were anesthetized with pentobarbital (30 mg/kg, i.p.). A cannula for intravenous administration, a cannula for collecting blood and measuring blood pressure, and a tracheal cannula were inserted into the left external jugular vein, right internal carotid artery, and trachea, respectively. The guinea pigs were maintained on artificial respiration under conditions of 60 times/min and 10 mL/kg/stroke. The overflowing air from the side branch of the tracheal cannula was measured by a bronchospasm transducer (Ugo-Basile) and recorded on a computer via Power Lab (ADInstruments Japan). The guinea pigs were immobilized with gallamine (10 mg/kg, i.v.), and histamine (12.5 μg/kg, i.v.) was administered at 10-minute intervals. After the histamine-induced bronchoconstriction became stable, the compound (0.3 mg/kg, i.v.) was administered. The histamine-induced bronchoconstriction reaction was measured 30 seconds after the compound administration to examine the bronchoconstriction inhibitory activity of the compound. The bronchoconstriction was recorded as the airflow value, and the results were represented by the ratio of the maximum value of the histamine-induced airflow 30 seconds after administration to the maximum value of the airflow before administration. Also, the test compounds dissolved in DMSO were used. Further, the indications were as follows: inhibition rate≧90% (+++), 90%>inhibition rate≧80% (++), and 80%>inhibition rate≧60% (+).

T2 sequence (Q07343 330-659 limits assumed): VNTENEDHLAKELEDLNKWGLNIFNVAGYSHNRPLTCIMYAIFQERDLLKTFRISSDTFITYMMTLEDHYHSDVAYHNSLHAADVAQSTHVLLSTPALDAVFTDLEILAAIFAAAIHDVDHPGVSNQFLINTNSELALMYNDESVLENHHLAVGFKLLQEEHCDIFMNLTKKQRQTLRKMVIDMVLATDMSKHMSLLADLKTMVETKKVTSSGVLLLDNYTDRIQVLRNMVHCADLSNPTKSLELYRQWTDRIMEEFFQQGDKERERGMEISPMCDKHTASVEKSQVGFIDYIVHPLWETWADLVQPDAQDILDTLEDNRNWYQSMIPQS
T1 sequence (Q14432 674-1093 limits assumed): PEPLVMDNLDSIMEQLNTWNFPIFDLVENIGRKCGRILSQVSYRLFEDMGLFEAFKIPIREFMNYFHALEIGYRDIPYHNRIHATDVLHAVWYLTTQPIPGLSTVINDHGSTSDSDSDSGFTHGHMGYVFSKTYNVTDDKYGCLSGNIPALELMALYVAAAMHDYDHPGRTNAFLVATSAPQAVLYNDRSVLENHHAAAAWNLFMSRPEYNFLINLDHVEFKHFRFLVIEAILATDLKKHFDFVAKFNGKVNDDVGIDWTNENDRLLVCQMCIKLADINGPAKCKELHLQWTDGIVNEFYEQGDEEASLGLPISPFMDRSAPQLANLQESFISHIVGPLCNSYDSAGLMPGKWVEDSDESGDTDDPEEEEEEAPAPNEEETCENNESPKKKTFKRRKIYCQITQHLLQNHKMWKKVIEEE

In the case of `CCc1ccc2c(C3=NN(CCCCOc4ccc(C5=NNC(=O)CC5C)cc4F)C(=O)C3(C)C)ccc(OC)c2n1` (single isomer, unassigned; (+)) [Example 206, (+)-5-(2-Ethyl-8-methoxyquinolin-5-yl)-2-[4-[2-fluoro-4-(4-methyl-6-oxo-1,4,5,6-tetrahydropyridazin-3-yl)phenoxy]butyl]-4,4-dimethyl-2,4-dihydro-pyrazol-3-one], the IC50 in data set [1] fell in the range of 0.1 to 1 µmol/L; at PDE4Bcat, 0.01 to 0.1 µmol/L. In data set [2], the “Inhibition rate (total number of leukocytes in BALF)” value (from here on “Inhibition rate”) is recorded as “+ (60%>inhibition rate≧40%)”.
On to `CCc1ccc2c(C3=NN(CCCCOc4ccc(C5=NNC(=O)CC5C)c(F)c4F)C(=O)C3(C)C)ccc(OC)c2n1` (single isomer, unassigned; (+)) [Example 210, (+)-5-(2-Ethyl-8-methoxyquinolin-5-yl)-2-[4-[2,3-difluoro-4-(4-methyl-6-oxo-1,4,5,6-tetrahydropyridazin-3-yl)phenoxy]butyl]-4,4-dimethyl-2,4-dihydro-pyrazol-3-one], for which the IC50 was under 0.01 µmol/L in data set [1] and 0.01 to 0.1 µmol/L at PDE4Bcat. Further, in data set [2] (10 mg/kg), the “Inhibition rate” value was “+ (60%>inhibition rate≧40%)”.
On to `CCc1ccc2c(C3=NN(CCCCOc4ccc(C5=NNC(=O)CC5C)cc4F)C(=O)C3(C)C)ccc(OC)c2n1` (single isomer, unassigned; (-)) [Example 207, (−)-5-(2-ethyl-8-methoxyquinolin-5-yl)-2-[4-[2-fluoro-4-(4-methyl-6-oxo-1,4,5,6-tetrahydropyridazin-3-yl)phenoxy]butyl]-4,4-dimethyl-2,4-dihydro-pyrazol-3-one], for which the values for the IC50 (in data set [1]; at PDE4Bcat) were under 0.01 µmol/L and 0.01 to 0.1 µmol/L, respectively. The inhibition in vivo at 0.3 mg/kg in data set [3] is at least 90%. The “Inhibition rate” value in data set [2] is on record as “+ (60%>inhibition rate≧40%)”.
In the case of `CCc1ccc2c(C3=NN(CCCCOc4ccc(C5=NNC(=O)CC5C)c(F)c4F)C(=O)C3(C)C)ccc(OC)c2n1` (single isomer, unassigned; (-)) [Example 211, (−)-5-(2-ethyl-8-methoxyquinolin-5-yl)-2-[4-[2,3-difluoro-4-(4-methyl-6-oxo-1,4,5,6-tetrahydropyridazin-3-yl)phenoxy]butyl]-4,4-dimethyl-2,4-dihydro-pyrazol-3-one], the IC50 in data set [1] is under 0.01 µmol/L; at PDE4Bcat, 0.01 to 0.1 µmol/L. Besides, the inhibition in vivo at 0.3 mg/kg in data set [3] was at least 90%. The “Inhibition rate” value in data set [2] (10 mg/kg) is “++ (80%≧inhibition rate≧60%)”.
Turning to `COc1ccc(C2=NN(CCCCOc3ccc(C4=NNC(=O)C4(C)C)c(F)c3F)C(=O)C2(C)C)c2ccc(C)nc12` [Example 197, 2-[4-[2,3-Difluoro-4-(4,4-dimethyl-5-oxo-4,5-dihydro-1H-pyrazol-3-yl)phenoxy]butyl]-5-(8-methoxy-2-methylquinolin-5-yl)-4,4-dimethyl-2,4-dihydro-pyrazol-3-one], the IC50 in data set [1] is under 0.01 µmol/L; at PDE4Bcat, 0.01 to 0.1 µmol/L. The inhibition in vivo at 0.3 mg/kg in data set [3] is at least 90%. The “Inhibition rate” value in data set [2] is “+++ (inhibition rate≧80%)”.
As for `CCc1ccc2c(C3=NN(CCCCOc4ccc(C5=NNC(=O)CC5C)cc4F)C(=O)C3(C)C)ccc(OC)c2n1` (centres unmarked) [Example 205, 5-(2-Ethyl-8-methoxyquinolin-5-yl)-2-[4-[2-fluoro-4-(4-methyl-6-oxo-1,4,5,6-tetrahydropyridazin-3-yl)phenoxy]butyl]-4,4-dimethyl-2,4-dihydro-pyrazol-3-one], the IC50 in data set [1] is under 0.01 µmol/L; on PDE4Bcat, 0.01 to 0.1 µmol/L. Also, the inhibition in vivo at 0.3 mg/kg in data set [3] is at least 90%. The “Inhibition rate” value in data set [2] is “+++ (inhibition rate≧80%)”.
As to `CCc1ccc2c(C3=NN(CCCCOc4ccc(C5=NNC(=O)CC5C)c(F)c4F)C(=O)C3(C)C)ccc(OC)c2n1` (centres unmarked) [Example 209, 5-(2-Ethyl-8-methoxyquinolin-5-yl)-2-[4-[2,3-difluoro-4-(4-methyl-6-oxo-1,4,5,6-tetrahydropyridazin-3-yl)phenoxy]butyl]-4,4-dimethyl-2,4-dihydro-pyrazol-3-one], the figures for the IC50 (in data set [1]; on PDE4Bcat) were under 0.01 µmol/L and 0.01 to 0.1 µmol/L, respectively. Further, the inhibition in vivo at 0.3 mg/kg in data set [3] is at least 90%. Moreover, the “Inhibition rate” value in data set [2] was “+++ (inhibition rate≧80%)”.
In turn, `COc1ccc(C2=NN(CCCCOc3ccc(C4=NNC(=O)CC4)c(F)c3F)C(=O)C2(C)C)c2cc(C(F)(F)F)sc12` [Example 222, 2-[4-[2,3-Difluoro-4-(6-oxo-1,4,5,6-tetrahydropyridazin-3-yl)phenoxy]butyl]-5-(7-methoxy-2-trifluoromethylbenzo[b]thiophen-4-yl)-4,4-dimethyl-2,4-dihydro-pyrazol-3-one] showed a melting point of 176 to 177 °C. Besides, the IC50 in data set [1] is under 0.01 µmol/L. Also, the IC50 at PDE4Bcat fell in the range of 0.1 to 1 µmol/L.
Take `COc1ccc(C2=NN(CCCCOc3ccc(C4=NNC(=O)C4(C)C)c(F)c3F)C(=O)C2(C)C)c2cc(C(F)(F)F)sc12` [Example 223, 2-[4-[2,3-Difluoro-4-(4,4-dimethyl-5-oxo-4,5-dihydro-1H-pyrazol-3-yl)phenoxy]butyl]-5-(7-methoxy-2-trifluoromethylbenzo[b]thiophen-4-yl)-4,4-dimethyl-2,4-dihydro-pyrazol-3-one]: the melting point lay in the range of 167 to 168 °C. For the same molecule, in data set [1], the IC50 was 0.01 to 0.1 µmol/L. In addition, the IC50 on PDE4Bcat lay within 0.01 to 0.1 µmol/L.
`COc1ccc(C2=NN(CCCCOc3ccc(C4=NNC(=O)CC4C)c(F)c3F)C(=O)C2(C)C)c2cc(C(F)(F)F)sc12` (centres unmarked) [Example 224, 2-[4-[2,3-Difluoro-4-(4-methyl-6-oxo-1,4,5,6-tetrahydropyridazin-3-yl)phenoxy]butyl]-5-(7-methoxy-2-trifluoromethylbenzo[b]thiophen-4-yl)-4,4-dimethyl-2,4-dihydro-pyrazol-3-one]: the melting point is 137 to 138 °C. The IC50 in data set [1] is under 0.01 µmol/L. For the same molecule, at PDE4Bcat, the IC50 is 0.01 to 0.1 µmol/L.
